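Here, GI50 denotes the concentration required for 50% inhibition of growth. TGI: total growth inhibition.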
How the values were obtained:
Assay in all cases: DTP human tumour cell line panel, 384-well format
HOP-62 NSCLC = system: HOP-62 NSCLC
HS 578T breast = system: HS 578T breast
MCF7 breast = system: MCF7 breast
HL-60(TB) leukemia = system: HL-60(TB) leukemia
MALME-3M melanoma = system: MALME-3M melanoma
NCI-H460 NSCLC = system: NCI-H460 NSCLC
SF-268 CNS = system: SF-268 CNS
A498 renal = system: A498 renal
LOX IMVI melanoma = system: LOX IMVI melanoma
SN12C renal = system: SN12C renal
CAKI-1 renal = system: CAKI-1 renal
SNB-19 CNS = system: SNB-19 CNS
RXF 393 renal = system: RXF 393 renal
UACC-257 melanoma = system: UACC-257 melanoma
NCI/ADR-RES ovarian = system: NCI/ADR-RES ovarian
A549 NSCLC = system: A549 NSCLC
MDA-MB-468 breast = system: MDA-MB-468 breast
U251 glioblastoma = system: U251 glioblastoma
SK-MEL-2 melanoma = system: SK-MEL-2 melanoma
KM12 colon = system: KM12 colon
SW-620 colon = system: SW-620 colon
OVCAR-5 ovarian = system: OVCAR-5 ovarian
DU-145 prostate = system: DU-145 prostate
UO-31 renal = system: UO-31 renal
ACHN renal = system: ACHN renal
NCI-H226 lung = system: NCI-H226 lung
HT29 colon = system: HT29 colon
OVCAR-8 ovarian = system: OVCAR-8 ovarian
EKVX NSCLC = system: EKVX NSCLC
RPMI-8226 leukemia = system: RPMI-8226 leukemia

## Cc1cc(C(=O)Nc2nc3cccc(Cl)c3n2[C@@H]2CCCCN(C(=O)/C=C/CN(C)C)C2)ccn1
HOP-62 NSCLC
  GI50: 1.93 µM
  TGI: 5.59 µM
HS 578T breast
  GI50: 1.62 µM
  TGI: 6.37 µM
MCF7 breast
  GI50: 2.51 µM
  TGI: 11.3 µM
HL-60(TB) leukemia
  GI50: 1.49 µM
  TGI: 2.82 µM
MALME-3M melanoma
  GI50: 2.76 µM
  TGI: 10.8 µM
NCI-H460 NSCLC
  GI50: 2.99 µM
  TGI: 10.6 µM
SF-268 CNS
  GI50: 3.02 µM
  TGI: 14 µM
A498 renal
  GI50: 1.45 µM
  TGI: 10.8 µM
LOX IMVI melanoma
  GI50: 2.24 µM
  TGI: 5.51 µM
SN12C renal
  GI50: 1.79 µM
  TGI: 13.9 µM
CAKI-1 renal
  GI50: 1.44 µM
  TGI: 14.8 µM
SNB-19 CNS
  GI50: 3.49 µM
  TGI: 14.9 µM
RXF 393 renal
  GI50: 4.04 µM
  TGI: 15.3 µM
UACC-257 melanoma
  GI50: 2.56 µM
  TGI: 8.75 µM
NCI/ADR-RES ovarian
  GI50: 2.3 µM
  TGI: 9.63 µM
A549 NSCLC
  GI50: 2.49 µM
  TGI: 13.6 µM
MDA-MB-468 breast
  GI50: 0.111 µM
  TGI: 0.507 µM
U251 glioblastoma
  GI50: 2.61 µM
  TGI: 8.17 µM
SK-MEL-2 melanoma
  GI50: 2.43 µM
  TGI: 7.52 µM
KM12 colon
  GI50: 3.36 µM
  TGI: 12.5 µM
SW-620 colon
  GI50: 2.93 µM
  TGI: 8.65 µM
OVCAR-5 ovarian
  GI50: 3.08 µM
  TGI: 14.2 µM
DU-145 prostate
  GI50: 2.34 µM
  TGI: 13.6 µM
UO-31 renal
  GI50: 2.05 µM
  TGI: 12.9 µM
ACHN renal
  GI50: 1.48 µM
  TGI: 12.5 µM
NCI-H226 lung
  GI50: 3.39 µM
  TGI: 15.9 µM
HT29 colon
  GI50: 4.41 µM
  TGI: 16.1 µM
OVCAR-8 ovarian
  GI50: 3.15 µM
  TGI: 13.7 µM
EKVX NSCLC
  GI50: 0.648 µM
  TGI: 3.73 µM
RPMI-8226 leukemia
  GI50: 1.4 µM
